Measurements taken from US4956381A, “Treating tissue calcium depletion or degenerative processes in bone or cartilage” (Sandoz Ltd., priority 1987, dated 1990).

System: IL-1
Assay: Effect on IL-1 synthesis and release (supernatants, homogenates, lysates of human monocytes)
Assay type: cell-based
Conditions: chondrocyte bioassay and RIA
Description: 0.3 ml Phosphate-buffered saline, containing 1 % heat-in-activated AB-human serum, is added to washed adherent human monocytes and the cells are detached using a rubber-policeman. The solution containing the cells is then transferred to two other wells belonging to the same group. This procedure is repeated three times. The final pooled suspension (0.9 ml) is homogenized using a Dounce homogenizer (Kontes Co, Vineland, NJ) by five times 7 strokes with the B-pestle.
The lysate is prepared by adding to the washed human monocyte monolayers 0.3 ml 0.01 % digitonin in water.
50 μl homogenate is diluted to 500 μl with medium and added to confluent chondrocytes to monitor the metalloproteinase inducing activity as a measure of IL-I content.
The content of IL-1 was also determined in the culture media and the cell homogenates and cell lysates using the RIA-test (see 1.3.).

## COC1=Cc2ccccc2/C(=C/C(=O)O)c2ccsc21 [Compound D2, [10-Methoxy-4H-benzo[4,5]cyclohepta[1,2-b]thiophen-4-ylidene]-acetic acid]
  levels of IL-1 in the supernatant media: significantly reduce the levels of IL-1 in the supernatant media
Homogenates and lysates
  mean cellular content of IL-1: only slightly reduced or remains unchanged
